# Source: US3954767A, “Piperazine salts of 2,5-dihydroxy benzene sulfonic acid mono- and diesters” (priority 1972, dated 1976)
# Where a name gives a salt, the structure may show the parent alone.
# System: rats treated with Triton WR-1339
# Assay: Hypolipemic action on the rat, Triton WR-1339 method
# Assay type: in vivo
# Settings: for Percentage reduction of lipids: Cholesterol / Percentage reduction of lipids: Total Lipids / Percentage reduction of lipids: Triglycerides: Table VI, with respect to Triton WR-1339
# Description: The above-mentioned Triton WR-1339 method was selected. The total cholesterol, triglycerides and total lipids were determined in the serum. The amount of Triton WR-1339 administered to the animals was 300 mg/kg. The amount of piperazine 2,5-dihydroxy benzene sulfonate mono-tosylate administered was 2 mMoles/Kg orally. The letter P signifies probability.
# The above-mentioned Triton WR-1339 method was selected. The total cholesterol, triglycerides and total lipids were determined in the serum. The results obtained are given in Table V. The amount of Triton WR-1339 administered to the animals was 300 mg/Kg. The amount of the piperazine salt with one mole of the di-0-(p-chloro phenoxy isobutyrate) of 2,5-dihydroxy benzene sulfonic acid administered was 1 mMol/Kg orally. The letter P signifies probability.
# In this Triton WR-1339 method, all the compounds are administered at a dose of 2 mMoles/Kg orally excepted those compounds in which is the residue of p-chlorophenoxy isobutyric acid, which are administered orally at a dose corresponding to 2 mMoles of R per Kg, i.e. the amount used is calculated on the basis of the residue R only.
# [1] = orally, 2 mMoles of R (p-chlorophenoxy isobutyric acid residue) per Kg
# [2] = orally, 2 mMoles of R (p-chlorophenoxy isobutyric acid residue) per Kg, dihydrate
# [3] = Triton 300 mg/Kg + compound 1 mMol/Kg orally, 0,005<P<0,010
SMILES,Percentage reduction of lipids: Cholesterol [1] [%],Percentage reduction of lipids: Total Lipids [1] [%],Percentage reduction of lipids: Triglycerides [1] [%],Percentage reduction of lipids: Cholesterol (2 mMoles/Kg orally) [%],Percentage reduction of lipids: Total Lipids (2 mMoles/Kg orally) [%],Percentage reduction of lipids: Triglycerides (2 mMoles/Kg orally) [%],other results
"CC(C)(Oc1ccc(Cl)cc1)C(=O)Oc1ccc(O)c(S(=O)(=O)O)c1 [pyridine 2,5-dihydroxybenzenesulfonate mono-p-chloro phenoxy] [mono-p-chloro phenoxy isobutyrate of pyridine 2,5-dihydroxy benzene sulfonate]",16,23,27,,,,
"O=C(Oc1ccc(OC(=O)c2ccccc2)c(S(=O)(=O)O)c1)c1ccccc1 [sodium 2,5-dihydroxybenzenesulfonate dibenzoate] [sodium 2.5-dihydroxybenzenesulphonate dibenzoate]",,,,12,20,17,
"Cc1ccc(S(=O)(=O)Oc2ccc(O)c(S(=O)(=O)O)c2)cc1 [piperidine bis(2,5-dihydroxybenzenesulfonate monotosylate)] [piperidine 2.5-dihydroxybenzenesulphonate monotosylate]",,,,15,33,26,
"CC(C)(Oc1ccc(Cl)cc1)C(=O)Oc1ccc(O)cc1S(=O)(=O)O [magnesium 2-O-(p-chlorophenoxyisobutyryl) 2,5-dihydroxybenzene sulfonate dihydrate]",,,,,,,Percentage reduction of lipids: Cholesterol [2]: 18%; Percentage reduction of lipids: Total Lipids [2]: 27%; Percentage reduction of lipids: Triglycerides [2]: 21%
"CC(C)(Oc1ccc(Cl)cc1)C(=O)Oc1ccc(O)c(S(=O)(=O)O)c1 [calcium salt of mono-O-(p-chloro phenoxy isobutyrate) of 2,5] [calcium salt of mono-O-(p-chlorophenoxy isobutyrate) of 2,5-dihydroxybenzene sulfonic acid]",27,26,40,,,,
"CC(C)(Oc1ccc(Cl)cc1)C(=O)Oc1ccc(OC(=O)C(C)(C)Oc2ccc(Cl)cc2)c(S(=O)(=O)O)c1 [piperazine di-salt of di-O-(p-chloro phenoxy isobutyrate) of] [piperazine di-salt of di-O-(p-chlorophenoxy isobutyrate) of 2,5-dihydroxy benzene sulfonic acid]",29,37,21,,,,
"Cc1ccc(S(=O)(=O)Oc2ccc(O)c(S(=O)(=O)O)c2)cc1 [sodium 2,5-dihydroxybenzenesulfonate monotosylate] [sodium 2,5-dihydroxy benzene sulfonate mono-tosylate]",,,,10,39,36,
"CC(C)(Oc1ccc(Cl)cc1)C(=O)Oc1ccc(O)c(S(=O)(=O)O)c1 [di-salt of piperazine of mono-O-(p-chloro phenoxy isobutyrat] [di-salt of piperazine of mono-O-(p-chlorophenoxy isobutyrate) of 2,5-dihydroxy benzene sulfonic acid]",16,26,31,,,,
"CC(C)(Oc1ccc(Cl)cc1)C(=O)Oc1ccc(OC(=O)C(C)(C)Oc2ccc(Cl)cc2)c(S(=O)(=O)O)c1 [pyridine salt of di-O-(p-chloro phenoxy isobutyrate) of 2,5-] [pyridine salt of the di-O-(p-chlorophenoxy isobutyrate) of 2,5-dihydroxy benzene sulfonic acid]",20,31,32,,,,
"O=C(Oc1ccc(OC(=O)c2ccccc2)c(S(=O)(=O)O)c1)c1ccccc1 [diethylamine 2,5-dihydroxybenzenesulfonate dibenzoate] [diethylamine 2.5-dihydroxybenzensulphonate dibenzoate]",,,,12,22,14,
"O=C(Oc1ccc(OC(=O)c2ccccc2)c(S(=O)(=O)O)c1)c1ccccc1 [piperidine 2,5-dihydroxybenzenesulfonate dibenzoate] [piperidine 2.5-dihydroxybenzenesulphonate dibenzoate]",,,,14,23,19,
"CC(C)(Oc1ccc(Cl)cc1)C(=O)Oc1ccc(OC(=O)C(C)(C)Oc2ccc(Cl)cc2)c(S(=O)(=O)O)c1 [piperazine mono-salt of di-O-(p-chloro phenoxy isobutyrate) ] [piperazine mono-salt of di-O-(p-chlorophenoxy isobutyrate) of 2,5-dihydroxy benzene sulfonic acid]",25,28,49,,,,"total cholesterol (Triton 300 mg/Kg + compound 1 mMol/Kg orally, 0,0025<P<0,005): 212,5 mg % ml of plasma; total lipids [3]: 1503,8 mg % ml of plasma; triglycerides [3]: 572,5 mg % ml of plasma"
"O=C(Oc1ccc(OC(=O)c2ccccc2)c(S(=O)(=O)O)c1)c1ccccc1 [piperazine 2,5-dihydroxybenzenesulfonate dibenzoate] [piperazine 2.5-dihydroxybenzenesulphonatedibenzoate]",,,,13,20,18,
"Cc1ccc(S(=O)(=O)Oc2ccc(O)c(S(=O)(=O)O)c2)cc1 [piperazine bis(2,5-dihydroxybenzenesulfonate monotosylate)] [piperazine bis(2.5-dihydroxybenzenesulphonate monotosylate)]",,,,11,17,25,
"O=C(Oc1ccc(OC(=O)c2ccccc2)c(S(=O)(=O)O)c1)c1ccccc1 [piperazine bis(2,5-dihydroxybenzene sulfonate dibenzoate)] [piperazine bis(2.5-dihydroxybenzenesulphonate dibenzoate)]",,,,9,16,14,
"O=C(Oc1ccc(OC(=O)c2ccccc2)c(S(=O)(=O)O)c1)c1ccccc1 [morpholine 2,5-dihydroxybenzenesulfonate dibenzoate] [morpholine 2.5-dihydroxybenzenesulphonate dibenzoate]",,,,12,21,17,
"CC(C)(Oc1ccc(Cl)cc1)C(=O)Oc1ccc(O)c(S(=O)(=O)O)c1 [mono-salt of piperazine of mono-O-(p-chloro phenoxy isobutyr] [mono-salt of piperazine of mono-O-(p-chlorophenoxy isobutyrate) of 2,5-dihydroxy benzene sulfonic acid]",9,25,49,,,,
"O=C(Oc1ccc(O)c(S(=O)(=O)O)c1)c1cccnc1 [pyridine 2,5-dihydroxybenzene sulfonate mono nicotinate]",,,,17,25,24,
